Legend:
Staphylococcus aureus [1] = test: Antibacterial activity against methicillin-sensitive Staphylococcus aureus ATCC 29213 after 18 hrs by agar dilution method; assay type: functional; conditions: ATCC 29213, 18 h
Staphylococcus aureus [2] = test: Antibacterial activity against methicillin-sensitive Staphylococcus aureus 16-1 clinical isolate after 18 hrs by agar dilution method; assay type: functional; conditions: 16-1, 18 h
Staphylococcus aureus [3] = test: Antibacterial activity against methicillin-resistant Staphylococcus aureus ATCC 33591 after 18 hrs by agar dilution method; assay type: functional; conditions: ATCC 33591, 18 h
Staphylococcus aureus [4] = test: Antibacterial activity against methicillin-resistant Staphylococcus aureus ATCC 43300 after 18 hrs by agar dilution method; assay type: functional; conditions: ATCC 43300, 18 h
Staphylococcus aureus [5] = test: Antibacterial activity against methicillin-resistant Staphylococcus aureus ATCC BAA-976 after 18 hrs by agar dilution method; assay type: functional; conditions: ATCC BAA-976, 18 h
Staphylococcus aureus [6] = test: Antibacterial activity against methicillin-resistant Staphylococcus aureus ATCC BAA-1708 after 18 hrs by agar dilution method; assay type: functional; conditions: ATCC BAA-1708, 18 h
Staphylococcus aureus [7] = test: Antibacterial activity against methicillin-resistant Staphylococcus aureus 13-18 clinical isolate after 18 hrs by agar dilution method; assay type: functional; conditions: 13-18, 18 h
Staphylococcus aureus [8] = test: Antibacterial activity against methicillin-resistant Staphylococcus aureus 13-23 clinical isolate after 18 hrs by agar dilution method; assay type: functional; conditions: 13-23, 18 h
Staphylococcus aureus [9] = test: Antibacterial activity against methicillin-resistant Staphylococcus aureus 16-30 clinical isolate after 18 hrs by agar dilution method; assay type: functional; conditions: 16-30, 18 h
Staphylococcus aureus [10] = test: Antibacterial activity against methicillin-resistant Staphylococcus aureus 16-34 clinical isolate after 18 hrs by agar dilution method; assay type: functional; conditions: 16-34, 18 h
[11] = Stability of the compound in Sprague-Dawley rat whole blood assessed as parent compound remaining after 1 hr by LC-MS/MS analysis; assay type: ADME, tissue-based; conditions: read-out: Stability
[12] = Stability of the compound in Sprague-Dawley rat whole blood assessed as parent compound remaining after 24 hrs by LC-MS/MS analysis; assay type: ADME, tissue-based; conditions: read-out: Stability
[13] = AUC (0 to t) in Sprague-Dawley rat at 1 mg/kg, iv administered as single dose; assay type: ADME, organism-based; conditions: in vivo
[14] = Mean residence time (0 to t) in Sprague-Dawley rat at 1 mg/kg, iv administered as single dose; assay type: ADME, organism-based; conditions: in vivo
[15] = Half life in Sprague-Dawley rat at 1 mg/kg, iv administered as single dose; assay type: ADME, organism-based; conditions: in vivo
[16] = Cmax in Sprague-Dawley rat at 5 mg/kg, po administered as single dose; assay type: ADME, organism-based; parameters: dose 5 mg/kg, route oral; conditions: in vivo
[17] = Tmax in Sprague-Dawley rat at 5 mg/kg, po administered as single dose; assay type: ADME, organism-based; conditions: in vivo
[18] = AUC (0 to t) in Sprague-Dawley rat at 5 mg/kg, po administered as single dose; assay type: ADME, organism-based; conditions: in vivo
[19] = Mean residence time (0 to t) in Sprague-Dawley rat at 5 mg/kg, po administered as single dose; assay type: ADME, organism-based; conditions: in vivo
[20] = Half life in Sprague-Dawley rat at 5 mg/kg, po administered as single dose; assay type: ADME, organism-based; conditions: in vivo
[21] = Oral bioavailability in Sprague-Dawley rat at 5 mg/kg administered as single dose; assay type: ADME, organism-based; conditions: in vivo
[22] = Toxicity in iv dosed Kunming mouse administered as single dose measured for 7 days; assay type: organism-based; conditions: in vivo
[23] = Stability of the compound in Sprague-Dawley rat whole blood assessed as parent compound remaining after 0.5 hrs by LC-MS/MS analysis; assay type: ADME, tissue-based; conditions: read-out: Stability

SMILES | MIC (Staphylococcus aureus [1]) [mg/L] | MIC (Staphylococcus aureus [2]) [mg/L] | MIC (Staphylococcus aureus [3]) [mg/L] | MIC (Staphylococcus aureus [4]) [mg/L] | MIC (Staphylococcus aureus [5]) [mg/L] | MIC (Staphylococcus aureus [6]) [mg/L] | MIC (Staphylococcus aureus [7]) [mg/L] | MIC (Staphylococcus aureus [8]) [mg/L] | MIC (Staphylococcus aureus [9]) [mg/L] | MIC (Staphylococcus aureus [10]) [mg/L] | remaining at 1 h [11] [%] | other results
COc1ccc2c(c[n+]3c4c2cc(Cc2ccccc2C)c2c5c(cc(c24)CC3)OCO5)c1OC.[Br-] | 4 | 2 | 2 | 2 | 1 | 2 | 2 | 2 | 4 | 2 | 94.2 | remaining at 24 h [12]: 80.9%; AUC(0-t) [13]: 0.724 µg·h/mL; MRT last [14]: 4.3 h; half-life [15]: 7.2 h; Cmax [16]: 0.0117 µg/mL; Tmax [17]: 1 h; AUC(0-t) [18]: 0.0283 µg·h/mL; MRT last [19]: 2.1 h; half-life [20]: 1.5 h; bioavailability [21]: 0.8%; LD50 at 168 h [22]: 65.6 mg/kg
COc1ccc2c(c[n+]3c4c2cc(C(C)c2ccccc2)c2c5c(cc(c24)CC3)OCO5)c1OC.[Br-] (configuration not stated) | 2 | 2 | 2 | 4 | 1 | 4 | 2 | 2 | 2 | 2 | 91.2 | remaining at 24 h [12]: 77.3%; LD50 at 168 h [22]: 41.2 mg/kg
C[C@H]1COc2c(N3CCN(C)CC3)c(F)cc3c(=O)c(C(=O)O)cn1c23.C[C@H]1COc2c(N3CCN(C)CC3)c(F)cc3c(=O)c(C(=O)O)cn1c23.O [LEVOFLOXACIN] | 0.125 | 0.125 | 0.125 | 0.125 | 0.125 | 8 | 32 | 32 | 32 | 32 | – | –
COc1ccc2c(c[n+]3c4c2cc(Cc2ccc(C#N)cc2)c2c5c(cc(c24)CC3)OCO5)c1OC.[Br-] | > 64 | > 64 | > 64 | > 64 | > 64 | > 64 | > 64 | > 64 | > 64 | > 64 | – | –
CCOC(=O)[C@H](CCc1ccccc1)N[C@@H](C)C(=O)N1CCC[C@H]1C(=O)O [ENALAPRIL] | – | – | – | – | – | – | – | – | – | – | 10.9 | remaining at 0.5 h [23]: 42.9%
COc1ccc2c(c[n+]3c4c2cc(Cc2c(F)cccc2F)c2c5c(cc(c24)CC3)OCO5)c1OC.[Br-] | 4 | 4 | 8 | 8 | 2 | 8 | 4 | 4 | 4 | 2 | – | –
COc1ccc2c(c[n+]3c4c2cc(Cc2ccc(SC(F)(F)F)cc2)c2c5c(cc(c24)CC3)OCO5)c1OC.[Br-] | > 64 | > 64 | > 64 | > 64 | > 64 | > 64 | > 64 | > 64 | > 64 | > 64 | – | –
